One series has as its target T1, human oxytocin receptor (Homo sapiens, UniProt P30559).
T1 construct: host or cells: CHO cells, stably transfected (pcDNA3.1 vector); membranes
T1 sequence (P30559 1-389): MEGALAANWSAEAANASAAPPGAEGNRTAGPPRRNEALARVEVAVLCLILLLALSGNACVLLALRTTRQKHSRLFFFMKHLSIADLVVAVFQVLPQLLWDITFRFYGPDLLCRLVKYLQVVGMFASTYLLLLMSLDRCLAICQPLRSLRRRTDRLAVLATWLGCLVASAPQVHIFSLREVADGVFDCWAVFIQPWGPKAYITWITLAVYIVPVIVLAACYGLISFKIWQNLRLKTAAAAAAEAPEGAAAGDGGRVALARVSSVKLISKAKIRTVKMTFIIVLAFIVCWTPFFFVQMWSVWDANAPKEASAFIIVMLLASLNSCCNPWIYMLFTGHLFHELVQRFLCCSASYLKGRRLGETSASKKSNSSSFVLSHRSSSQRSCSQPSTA
In words: Oxytocin binding in CHO cell membranes expressing human oxytocin receptors ([3H]oxytocin radioligand). Conditions: 100 nM, value without parentheses. An excerpt: Oxytocin binding in Chinese Hamster Ovary cell membranes expressing human oxytocin receptors
Chinese Hamster Ovary (CHO) cells stably transfected with the human oxytocin (cf. T. Kimura et al., U.S. Pat. No. 5,466,584 (1995) to Rohto Pharmaceutical Co. Ltd., Osaka, Japan) were obtained from Dr. M. Thibonnier, Case Western Reserve University School of Medicine, Cleveland, Ohio.
A. Passaging and Amplification of Cells:
CHO cells transfected with the human oxytocin receptors obtained from M. Thibonnier (pcDNA3.1 vector) are allowed to grow to confluency (approx. >90%) in T-150 flasks under sterile conditions, in a cell culture medium of F-12 Nutrient Mixture (HAM) with L-glutamine (Gibco Cat. #11765-054) containing 15 mM HEPES (Gibco Cat. #15630-080), 1% antibiotic/antimycotic (add 5 mL 100×, Gibco Cat. #15240-062 per 500 mL F-12), 400 μg/mL of Geneticin (add 4 mL of 50 mg/mL per 500 mL F-12) and 10% Fetal Bovine Serum (Qualified, heat inactivated, Gibco Cat. #16140-063). The medium is removed by aspiration and the cells are washed with 10 mL of Hank's Balanced Salt solution (Gibco Cat. #14175-095). The salt solution is removed by aspiration and the cells trypsinized with 5 mL of trypsin-EDTA (0.05% trypsin, 0.53 mM EDTA-4Na, Gibco Cat. #25300-070) for 1 min The trypsin is removed by aspiration and the cells dislodged by tapping. Cell Culture medium (e.g. 30 mL for 1:30 split) is immediately added and mixed well to inactivate trypsin. 1 mL of detached cells is added to new culture flasks containing fresh Cell Culture medium (e.g. into 25 mL per T-150 flask), and mixed gently. The cells are incubated at 37° C. in 5% CO2. The medium is changed at 3 to 4 days interval (or as appropriate). The cells grow to confluency (approx. >75%-95%) within 7-8 days. All steps are done under sterile conditions.
The cells are washed twice gently with Hank's Balanced Salt solution (eg, use 10 mL per T-150 flask). The excess is removed and the cells bathed for 15-30 min. in an enzyme-free Cell Dissociation Buffer (eg, use 8 mL Hank's Based, Gibco Cat. #13150-016 per T-150 flask) until cells are loosened. The contents are transferred to centrifuge tubes (50 mL size) kept in ice bath. All subsequent steps are done at 4° C. The tubes are centrifuged at 300×g for 15 min (1380 rpm on SORVAL, Model RT6000D, using rotor for 50 mL tubes). The supernatant is discarded and the cells suspended in homogenizing buffer (10 mM Tris-HCl containing 0.25 M sucrose and 1 mM EDTA, pH 7.4) ensuring that the volume of the buffer is about ten times the volume of the cell pellet. The cells are pooled into a centrifuge tube (50 mL) and homogenized with Polytron at setting 6 for 10 sec. The homogenate is transferred into a Potter-Elvjehm homogenizer and homogenized with 3 strokes. The homogenate is centrifuged at 1500×g for 10 min at 4° C. (3100 rpm using SORVAL, model RT6000D, using rotor for 50 mL tubes). The pellet is discarded. The supernatant is centrifuged at 100,000×g for 60 min. at 4° C. (Beckman L8-80M ultracentrifuge; spin at 37,500 rpm with rotor type 70 Ti for 50 mL tubes; 38,000 rpm with type 80Ti for 15 mL tubes; or 35,800 rpm with rotor type 45Ti). The supernantant is discarded and the pellet suspended in 3 to 4 mL of Tris buffer (50 mM TRIS-HCl, pH 7.4). The protein content is estimated by the Bradford or Lowry method. The volume of the membrane suspension is adjusted with the membrane buffer (50 mM Tris-HCl containing 0.1% BSA and 0.1 mM PMSF) to give 3.0 mg/mL (or as appropriate) of protein. The membranes are aliquoted and stored at −70° C.
C. Radioligand Binding Assay:
In wells of a 96-well format microtiter plate, is added 90, 110 or 130 μL (to make up a final volume of 200 μL) of assay buffer containing 50 mM of Tris-HCl (pH 7.4), […], 1 mg % aprotinin, 1 mg % leupeptin, 2 mg % 1,10-phenanthroline, 10 mg % trypsin inhibitor, and 0.1 mM PMSF. The inhibitors are added on the day of the experiment. […]
Take `Cc1cc(C(=O)N2Cc3ccc(C(=O)N4CCN(CCO)CC4)n3Cc3ccccc32)ccc1C1=CCCCC1` [Example 17, {10-[4-(1-Cyclohex-1-en-1-yl)-3-methylbenzoyl]-10,11-dihydro-5H-pyrrolo[2,1-c][1,4]benzodiazepin-3-yl}[4-(2-hydroxyethyl)-1-piperazinyl]methanone]: the “OT % inhibition @ 100 nM” value was 88%.

Take `Cc1cc(C(=O)N2Cc3ccc(C(=O)N(CCO)CCO)n3Cc3ccccc32)ccc1C1=CCCc2ccccc21` [Example 16, {10-[4-(3,4-Dihydro-naphthalen-1-yl)-3-methyl-benzoyl]-10,11-dihydro-5H-pyrrolo[2,1-c][1,4]benzodiazepin-3-yl}-3-carboxylic acid bis-(2-hydroxy-ethyl)-amide]: the “OT % inhibition @ 100 nM” value is 98%.

Take `Cc1cc(C(=O)N2Cc3ccc(C(=O)C(Cl)(Cl)Cl)n3Cc3ccccc32)ccc1C1=CCCCC1` [Example 5D, 2,2,2-Trichloro-1-[10-(4-cyclohex-1-en-1-yl-3-methyl-benzoyl)-10,11-dihydro-5H-pyrrolo[2,1-c][1,4]benzodiazepin-3-yl]-methanone]: the “OT % inhibition @ 100 nM” value was 10%.

For the molecule `Cc1cc(C(=O)N2Cc3ccc(C(=O)N[C@@H](Cc4ccc(O)cc4)C(=O)O)n3Cc3ccccc32)ccc1C1=CCCCC1` [Example 10], the “OT % inhibition @ 100 nM” value came out at 54%.

Staying with this series, now noted: 100 nM, value without parentheses, read-out: OT % inhibition @ 100 nM.
With `COc1cc(C2=CCCCC2)c(Cl)cc1C(=O)N1Cc2ccc(C(=O)O)n2Cc2ccccc21` [Example 1G, 10-(5-Chloro-4-cyclohex-1-en-1-yl-2-methoxybenzoyl)-10,11-dihydro-5H-pyrrolo[2,1-c][1,4]benzodiazepine-3-carboxylic acid], the inhibition at 0.1 µM was 21%.

For `Cc1cc(C(=O)N2Cc3ccc(C(=O)N(C)C[C@@H]4OC(=O)O[C@H]4[C@H](O)[C@H]4COC(=O)O4)n3Cc3ccccc32)ccc1C1=CCCCC1` [Example 7, 10-(4-Cyclohex-1-en-1-yl-3-methylbenzoyl)-N-[((4S,5S)-5-{(R)-hydroxy[(4R)-2-oxo-1,3-dioxolan-4-yl]methyl}-2-oxo-1,3-dioxolan-4-yl)methyl]-N-methyl-10,11-dihydro-5H-pyrrolo[2,1-c][1,4]benzodiazepine-3-carboxamide], the inhibition at 0.1 µM worked out at 99%.

`Cc1cc(C(=O)N2Cc3ccc(C(=O)O)n3Cc3ccccc32)ccc1C1=CCCc2ccccc21` [Example 15B, 10-[4-(3,4-Dihydro-naphthalen-1-yl)-3-methyl-benzoyl]-10,11-dihydro-5H-pyrrolo[2,1-c][1,4]benzodiazepine-3-carboxylic acid]: the inhibition at 0.1 µM was 19%.

On to `CCOC(=O)[C@H](Cc1ccc(O)cc1)NC(=O)c1ccc2n1Cc1ccccc1N(C(=O)c1ccc(C3=CCCCC3)c(C)c1)C2` [Example 9, (2S)-2-{[10-(4-Cyclohex-1-en-1-yl-3-methyl-benzoyl)-10,11-dihydro-5H-pyrrolo[2,1-c][1,4]benzodiazepine-3-carbonyl]-amino}-3-(4-hydroxy-phenyl)-propionic acid ethyl ester], for which the inhibition at 0.1 µM was 23%.

Take `Cc1cc(C(=O)N2Cc3ccc(C(=O)N[C@H](CO)C(=O)O)n3Cc3ccccc32)ccc1C1=CCCCC1` [Example 14, (2R)-2-{[10-(4-Cyclohex-1-en-1-yl-3-methyl-benzoyl)-10,11-dihydro-5H-pyrrolo[2,1-c][1,4]benzodiazepine-3-carbonyl]-amino}-3-hydroxy-propionic acid]: the inhibition at 0.1 µM amounted to 50%.

For the molecule `Cc1cc(C(=O)N2Cc3ccc(C(=O)O)n3Cc3ccccc32)ccc1C1=CCCCC1` [Example 5E, 10-(4-Cyclohex-1-en-1-yl-3-methyl-benzoyl)-10,11-dihydro-5H-pyrrolo[2,1-c][1,4]benzodiazepine-3-carboxylic acid], the inhibition at 0.1 µM was 26%.

With `Cc1cc(C(=O)N2Cc3ccc(C(=O)N[C@@H](CO)C(=O)O)n3Cc3ccccc32)ccc1C1=CCCCC1` [Example 13, (2S)-2-{[10-(4-Cyclohex-1-en-1-yl-3-methyl-benzoyl)-10,11-dihydro-5H-pyrrolo[2,1-c][1,4]benzodiazepine-3-carbonyl]-amino}-3-hydroxy-propionic acid], the inhibition at 0.1 µM amounted to 63%.

The same series, now with this note: value in parentheses, read-out: OT (IC50).
With `COC(=O)[C@H](CO)NC(=O)c1ccc2n1Cc1ccccc1N(C(=O)c1ccc(C3=CCCCC3)c(C)c1)C2` [Example 11, (2S)-2-{[10-(4-Cyclohex-1-en-1-yl-3-methyl-benzoyl)-10,11-dihydro-5H-pyrrolo[2,1-c][1,4]benzodiazepine-3-carbonyl]-amino}-3-hydroxy-propionic acid methyl ester], the IC50 was determined as 76.2 nM.

As for `COc1cc(C2=CCCCC2)c(Cl)cc1C(=O)N1Cc2ccc(C(=O)N(C)C[C@@H]3OC(=O)O[C@H]3[C@H](O)[C@H]3COC(=O)O3)n2Cc2ccccc21` [Example 3, 10-(5-Chloro-4-cyclohex-1-en-1-yl-2-methoxybenzoyl)-N-[((4S,5S)-5-{(R)-hydroxy[(4R)-2-oxo-1,3-dioxolan-4-yl]methyl}-2-oxo-1,3-dioxolan-4-yl)methyl]-N-methyl-10,11-dihydro-5H-pyrrolo[2,1-c][1,4]benzodiazepine-3-carboxamide], the IC50 was determined as 4.92 nM.

With `Cc1cc(C(=O)N2Cc3ccc(C(=O)N(C)C[C@H](O)[C@@H](O)[C@H](O)[C@H](O)CO)n3Cc3ccccc32)ccc1C1=CCCCC1` [Example 5], the IC50 is 2.15 nM.

As to `Cc1cc(C(=O)N2Cc3ccc(C(=O)N(C)C[C@H](O)[C@@H](O)[C@H](O)[C@H](O)CO)n3Cc3ccccc32)ccc1C1=CCCc2ccccc21` [Example 15], the IC50 turned out to be 3.19 nM.

Consider `COC(=O)[C@@H](CO)NC(=O)c1ccc2n1Cc1ccccc1N(C(=O)c1ccc(C3=CCCCC3)c(C)c1)C2` [Example 12, (2R)-2-{[10-(4-Cyclohex-1-en-1-yl-3-methyl-benzoyl)-10,11-dihydro-5H-pyrrolo[2,1-c][1,4]benzodiazepine-3-carbonyl]-amino}-3-hydroxy-propionic acid methyl ester], for which the IC50 came out at 47.1 nM.

On to `COC[C@@H](OC)[C@@H](OC)[C@H](OC)[C@H](CN(C)C(=O)c1ccc2n1Cc1ccccc1N(C(=O)c1cc(Cl)c(C3=CCCCC3)cc1OC)C2)OC` [Example 2, 10-(5-Chloro-4-cyclohex-1-en-1-yl-2-methoxybenzoyl)-N-methyl-N-[(2S,3R,4R,5R)-2,3,4,5,6-pentamethoxyhexyl]-10,11-dihydro-5H-pyrrolo[2,1-c][1,4]benzodiazepine-3-carboxamide], for which the IC50 amounted to 19.6 nM.

Test system in the next series: not given
Assay: not given
Details: not given
As to `Cc1cc(C(=O)N2Cc3ccc(C(=O)N(C)C[C@@H]4OC(=O)O[C@H]4[C@H](O)[C@H]4COC(=O)O4)n3Cc3ccccc32)ccc1C1=CCCCC1` [Example 7, 10-(4-Cyclohex-1-en-1-yl-3-methylbenzoyl)-N-[((4S,5S)-5-{(R)-hydroxy[(4R)-2-oxo-1,3-dioxolan-4-yl]methyl}-2-oxo-1,3-dioxolan-4-yl)methyl]-N-methyl-10,11-dihydro-5H-pyrrolo[2,1-c][1,4]benzodiazepine-3-carboxamide], the melting point lay within 162 to 168 °C.

The molecule `COc1cc(C2=CCCCC2)c(Cl)cc1C(=O)N1Cc2ccc(C(=O)N(C)C[C@@H]3OC(=O)O[C@H]3[C@H](O)[C@H]3COC(=O)O3)n2Cc2ccccc21` [Example 3, 10-(5-Chloro-4-cyclohex-1-en-1-yl-2-methoxybenzoyl)-N-[((4S,5S)-5-{(R)-hydroxy[(4R)-2-oxo-1,3-dioxolan-4-yl]methyl}-2-oxo-1,3-dioxolan-4-yl)methyl]-N-methyl-10,11-dihydro-5H-pyrrolo[2,1-c][1,4]benzodiazepine-3-carboxamide] returned a melting point of 163 to 176 °C.

Usually inhibition stands for the change of the read-out against control, counted positive when it falls. As usually defined, the IC50 is the concentration needed to halve the response being measured. A word on the melting point: it is the temperature, or range, at which the solid turns liquid.
